Assay [1] has as its system CHO DG44 cells. As to the kind of experiment: Multiple VPA additions, IgG batch titer by ELISA (Example 3). The format is cell-based, Chinese Hamster. The note with it: day 10 after transfection. As to the method:
10 million suspension-adapted HEK293E cells were resuspended in 0.5 ml of Ex-Cell 293 HEK 293 serum-free medium with 4 mmol/l L-glutamine (Cat. No. 14571C-[…]; Lot No. 6A0093; SAFC Biosciences, Lenexa, Kans., USA, “Ex-Cell” medium; note: “Ex-Cell” medium-as used herein-refers to a medium comprising 4 mmol/l L-glutamine) in a 50-ml filter tube each (TPP AG, Trasadingen, Switzerland; Cat. No. 87050, Lot 20050174). In a separate set, 10 million suspension-adapted CHO DG44 cells were resuspended in 0.5 ml of ProCHO5 serum-free medium with 4 mmol/[…] hypoxanthine and 0.194 g/l thymidine (BioWhittaker (Lonza), Belgium; Cat. No. BE12-[…]; Lot No. 7 MB0040; “ProCHO5” medium; note: “ProCHO5” medium-as used herein-refers to a medium comprising 4 mmol/[…] hypoxanthine and 0.194 g/l thymidine) in a 50-ml filter tube each (TPP AG, Trasadingen, Switzerland; Cat. No. 87050, Lot 20050174). Then 12.5 μg plasmid DNA at a concentration of 1 μg/μl was added in each tube with the following composition 50% (6.25 μg) p-LC (SEQ ID NO: 1) 50% (6.25 μg) p-HC (SEQ ID NO: 3). Plasmid p-LC comprises the genetic information for the production of the light chain of an IgG antibody, plasmid p-HC comprises the genetic information for the production of the heavy chain of an IgG antibody. The particular vector constructs used in the present invention can also be obtained from the inventors. The inventors can be contacted via e-mail at […]. […] In short, Goat anti-human kappa light chain IgG (Biosource) was used for coating the ELISA-plates, and with AP-conjugated goat anti-human gamma chain IgG (Biosource) the synthesized IgG1 was detected. […] Absorption was measured at 405 nm against 490 nm using a microplate reader (SPECTRAmaxTM340; Molecular Devices, Palo Alto, Calif., USA).

The subject of assay [2] is CHO DG44 cells. The assay can be described thus: Alternative transgene TNFR-Fc, batch titer by ELISA (Example 4). The format is cell-based, Chinese Hamster. The note with it: 0.5 mmol/l final VPA, day 5 after transfection. As to the method: 10 million suspension-adapted HEK293E cells were resuspended in 0.5 ml of Ex-Cell 293 HEK 293 serum-free medium with 4 mmol/l L-glutamine (Cat. No. 14571C-[…]; Lot No. 6A0093; SAFC Biosciences, Lenexa, Kans., USA, “Ex-Cell” medium; note: “Ex-Cell” medium-as used herein-refers to a medium comprising 4 mmol/l L-glutamine) in a 50-ml filter tube each (TPP AG, Trasadingen, Switzerland; Cat. No. 87050, Lot 20050174). In a separate set, 10 million suspension-adapted CHO DG44 cells were resuspended in 0.5 ml of ProCHO5 serum-free medium with 4 mmol/[…] hypoxanthine and 0.194 g/l thymidine (BioWhittaker (Lonza), Belgium; Cat. No. BE12-[…]; Lot No. 7MB0040; “ProCHO5” medium; note: “ProCHO5” medium-as used herein-refers to a medium comprising 4 mmol/[…] hypoxanthine and 0.194 g/l thymidine) in a 50-ml filter tube each (TPP AG, Trasadingen, Switzerland; Cat. No. 87050, Lot 20050174). […] In short, Goat Anti-Human IgG (Fc Fragment specific; Jackson ImmunoResearch Laboratories Inc., West Grove, Pa., USA; Code Number 109-006-098; Lot No. 72349) was used for coating the ELISA-plates, and with AP-conjugated goat anti-human gamma chain IgG (Biosource) the synthesized TNFR-Fc was detected. […] Absorption was measured at 405 nm against 490 nm using a microplate reader (SPECTRAmaxTM340; Molecular Devices, Palo Alto, Calif., USA).

Take `CCCC(CCC)C(=O)O` [VPA, valproic acid]: the Batch titer turned out to be 35.8 mg/L in the assay with CHO DG44 cells [1] (0.5 mmol/l VPA at day 0); 37.9 mg/L with CHO DG44 cells [1] (escalating dosage, 0.125 to 0.5 mmol/l in 0.125 mmol/l increments every other day); 27.7 ± 3.7 mg/L in the assay with CHO DG44 cells [2]. The “batch titers, direct addition versus slowly increasing concentration” value with CHO DG44 cells [1] is recorded as “statistically not different”. Moreover, the “Fold increase over control” value with CHO DG44 cells [2] is reported as 1.8 fold.

The values are drawn from patent US20090023186A1, “USE OF VALPROIC ACID FOR ENHANCING PRODUCTION OF RECOMBINANT PROTEINS IN MAMMALIAN CELLS” (EXCELLGENE SA, priority 2007, published 2009).
